In ChEMBL document CHEMBL5058646 (2022):

Tests used:
[1] = biological target: T1, Zinc finger protein 131 (Homo sapiens) (UniProt P52739); conditions: SUD4, Compound concentration 1.0 uM
T1 sequence (whole entry): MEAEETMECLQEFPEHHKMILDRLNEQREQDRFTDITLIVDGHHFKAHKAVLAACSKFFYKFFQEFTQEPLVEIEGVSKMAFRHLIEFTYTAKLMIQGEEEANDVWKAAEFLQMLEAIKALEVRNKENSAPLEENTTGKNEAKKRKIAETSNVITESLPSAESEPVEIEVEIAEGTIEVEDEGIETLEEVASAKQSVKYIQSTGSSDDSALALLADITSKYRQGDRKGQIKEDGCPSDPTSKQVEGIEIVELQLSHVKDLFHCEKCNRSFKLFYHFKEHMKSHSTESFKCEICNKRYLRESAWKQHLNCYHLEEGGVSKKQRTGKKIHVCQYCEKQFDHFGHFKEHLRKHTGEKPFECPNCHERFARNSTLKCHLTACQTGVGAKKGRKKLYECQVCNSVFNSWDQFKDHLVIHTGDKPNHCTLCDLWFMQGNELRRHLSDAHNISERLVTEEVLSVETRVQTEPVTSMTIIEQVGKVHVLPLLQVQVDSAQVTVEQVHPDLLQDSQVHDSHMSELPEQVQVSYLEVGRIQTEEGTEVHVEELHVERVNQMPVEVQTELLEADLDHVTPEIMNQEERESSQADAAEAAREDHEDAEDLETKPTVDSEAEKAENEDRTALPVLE

[2] = biological target: T2, Zinc finger and BTB domain-containing protein 40 (Homo sapiens) (UniProt Q9NUA8); conditions: OCI-Ly1, Compound concentration 1.0 uM
T2 sequence (whole entry): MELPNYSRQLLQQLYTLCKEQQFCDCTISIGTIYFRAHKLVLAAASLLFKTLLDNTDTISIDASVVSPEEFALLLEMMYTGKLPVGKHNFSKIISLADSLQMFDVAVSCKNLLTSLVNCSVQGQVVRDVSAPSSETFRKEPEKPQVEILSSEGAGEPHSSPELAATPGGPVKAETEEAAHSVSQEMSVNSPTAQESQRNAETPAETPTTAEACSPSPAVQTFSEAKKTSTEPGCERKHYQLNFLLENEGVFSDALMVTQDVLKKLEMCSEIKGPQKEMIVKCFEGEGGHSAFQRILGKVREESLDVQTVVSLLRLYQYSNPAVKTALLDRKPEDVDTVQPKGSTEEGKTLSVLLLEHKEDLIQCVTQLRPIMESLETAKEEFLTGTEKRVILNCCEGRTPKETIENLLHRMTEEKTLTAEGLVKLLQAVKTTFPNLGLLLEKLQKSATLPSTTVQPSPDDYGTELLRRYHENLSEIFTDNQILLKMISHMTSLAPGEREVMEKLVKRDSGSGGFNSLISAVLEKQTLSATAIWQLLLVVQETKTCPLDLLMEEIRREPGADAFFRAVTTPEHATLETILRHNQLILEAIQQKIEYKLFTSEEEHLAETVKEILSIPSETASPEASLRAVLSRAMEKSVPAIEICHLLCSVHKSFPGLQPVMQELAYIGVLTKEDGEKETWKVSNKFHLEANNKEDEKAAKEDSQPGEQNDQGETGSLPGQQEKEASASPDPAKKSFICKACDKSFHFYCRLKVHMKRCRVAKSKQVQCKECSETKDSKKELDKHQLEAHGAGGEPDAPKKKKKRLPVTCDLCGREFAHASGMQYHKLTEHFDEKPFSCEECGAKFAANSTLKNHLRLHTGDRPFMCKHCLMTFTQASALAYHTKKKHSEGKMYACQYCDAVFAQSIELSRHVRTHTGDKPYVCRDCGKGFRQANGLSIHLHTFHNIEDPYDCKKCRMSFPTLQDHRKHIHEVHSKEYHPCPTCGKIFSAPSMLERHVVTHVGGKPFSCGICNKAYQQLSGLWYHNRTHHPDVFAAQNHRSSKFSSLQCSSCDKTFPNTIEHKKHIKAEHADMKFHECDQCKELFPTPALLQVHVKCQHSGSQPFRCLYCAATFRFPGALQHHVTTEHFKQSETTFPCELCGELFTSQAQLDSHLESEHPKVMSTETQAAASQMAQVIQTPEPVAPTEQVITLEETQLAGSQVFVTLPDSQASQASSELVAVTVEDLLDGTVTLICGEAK

[3] = biological target: T3, Zinc finger and BTB domain-containing protein 44 (Homo sapiens) (UniProt Q8NCP5); conditions: SUD4, Compound concentration 1.0 uM
T3 sequence (whole entry): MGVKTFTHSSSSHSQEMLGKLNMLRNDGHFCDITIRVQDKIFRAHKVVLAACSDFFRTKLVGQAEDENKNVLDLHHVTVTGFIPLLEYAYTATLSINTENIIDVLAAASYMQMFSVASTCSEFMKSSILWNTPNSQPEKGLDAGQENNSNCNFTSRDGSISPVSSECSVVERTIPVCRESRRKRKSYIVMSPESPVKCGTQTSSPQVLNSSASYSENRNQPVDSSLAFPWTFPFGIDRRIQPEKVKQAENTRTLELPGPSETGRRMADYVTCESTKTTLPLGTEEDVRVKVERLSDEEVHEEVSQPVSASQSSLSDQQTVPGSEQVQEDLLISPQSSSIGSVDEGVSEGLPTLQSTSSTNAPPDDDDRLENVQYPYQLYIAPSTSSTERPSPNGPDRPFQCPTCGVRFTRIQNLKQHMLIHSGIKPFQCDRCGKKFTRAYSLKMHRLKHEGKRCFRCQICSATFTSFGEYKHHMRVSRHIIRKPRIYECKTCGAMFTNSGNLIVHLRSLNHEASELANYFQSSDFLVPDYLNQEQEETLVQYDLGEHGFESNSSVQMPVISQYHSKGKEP

[4] = biological target: D(1B) dopamine receptor (Homo sapiens) (UniProt P21918); conditions: Compound concentration 10.0 uM
Sequence of D(1B) dopamine receptor (Homo sapiens) (P21918 whole entry): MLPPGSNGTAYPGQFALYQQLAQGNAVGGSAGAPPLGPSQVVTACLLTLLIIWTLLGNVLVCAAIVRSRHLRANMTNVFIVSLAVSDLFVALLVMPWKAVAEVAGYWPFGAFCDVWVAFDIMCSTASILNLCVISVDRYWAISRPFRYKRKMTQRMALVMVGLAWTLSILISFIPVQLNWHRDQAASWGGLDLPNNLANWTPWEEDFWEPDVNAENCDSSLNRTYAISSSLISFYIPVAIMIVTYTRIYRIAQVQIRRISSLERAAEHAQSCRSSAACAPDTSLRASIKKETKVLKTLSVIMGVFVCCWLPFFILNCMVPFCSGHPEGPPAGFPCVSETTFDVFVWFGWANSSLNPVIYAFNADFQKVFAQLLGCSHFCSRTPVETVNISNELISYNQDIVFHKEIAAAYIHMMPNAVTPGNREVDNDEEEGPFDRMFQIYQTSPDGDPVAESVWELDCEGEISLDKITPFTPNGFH

LogFC [1]: 0.111
LogFC [2]: -0.194
LogFC [3]: -0.235
inhibition [4]: 26.2%
Compound: C[C@@H]1CN(c2ncc(Cl)c(Nc3ccc4c(c3)n(CCC(C)(C)O)c(=O)n4C)n2)C[C@H](C)C1(F)F
